Data taken from publication PMC3104989 (PLoS ONE, 2011).

These molecules were tested against T1, Hog1 (Saccharomyces cerevisiae, UniProt P32485) (assay: in vitro radiometric kinase assay, single dose […]).
T1 sequence (P32485 2-435): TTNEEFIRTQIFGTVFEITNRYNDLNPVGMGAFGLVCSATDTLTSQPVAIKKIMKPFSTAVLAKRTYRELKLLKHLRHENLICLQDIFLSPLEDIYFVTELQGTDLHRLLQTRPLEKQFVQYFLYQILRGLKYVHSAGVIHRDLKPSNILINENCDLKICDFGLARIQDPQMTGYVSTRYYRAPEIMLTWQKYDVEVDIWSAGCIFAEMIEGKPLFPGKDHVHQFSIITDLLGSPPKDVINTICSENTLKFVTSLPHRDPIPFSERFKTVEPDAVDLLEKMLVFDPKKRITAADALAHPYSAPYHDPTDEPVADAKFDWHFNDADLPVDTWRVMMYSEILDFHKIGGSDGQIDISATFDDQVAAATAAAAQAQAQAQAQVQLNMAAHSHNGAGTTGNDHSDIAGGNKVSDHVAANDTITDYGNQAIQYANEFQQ
Assay type: biochemical
`Fc1ccc(-c2nnn(CC3CC3)c2-c2ccncc2)cc1` [1a] gave a remaining activity at 0.1 µM of 50 to 70%. With `c1ccc(Cn2nnc(-c3ccccc3)c2-c2ccncc2)cc1` [1b] the remaining activity at 0.1 µM was 50 to 70%. Work on `Fc1ccc(-c2nnn(Cc3ccccc3)c2-c2ccncc2)cc1` [1c] yielded a remaining activity at 0.1 µM of 50 to 70%. `Clc1ccc(-c2nnn(Cc3ccccc3)c2-c2ccncc2)cc1` [1d] was tested, and the remaining activity at 0.1 µM was 50 to 70%. For `Brc1ccc(-c2nnn(Cc3ccccc3)c2-c2ccncc2)cc1` [1e], the remaining activity at 0.1 µM was 50 to 70%. In the case of `CC1CCC(Nc2cc(-c3c(-c4ccc(F)cc4)nnn3Cc3ccccc3)ccn2)CC1` (stereo not drawn) [4d, 4-(1-benzyl-4-(4-fluorophenyl)-1H-1,2,3-triazol-5-yl)-N-(4-methyl-cyclohexyl)pyridin-2-amine], the remaining activity at 0.1 µM is reported as 35 to 40%. In the case of `C[C@H](Nc1cc(-c2c(-c3ccc(F)cc3)nnn2Cc2ccccc2)ccn1)c1ccccc1` [4e, (S)-4-(1-benzyl-4-(4-fluorophenyl)-1H-1,2,3-triazol-5-yl)-N-(1-phenylethyl)pyridin-2-amine], the remaining activity at 0.1 µM is reported as 35 to 40%.

What follows are molecules tested against T1, Hog1 (assay: in vitro radiometric kinase assay with biotinylated Sic1 peptide).
Assay type: biochemical
Work on `CC(C)Nc1cc(-c2c(-c3ccccc3)nnn2Cc2ccccc2)ccn1` [4a, 4-(1-benzyl-4-phenyl-1H-1,2,3-triazol-5-yl)-N-isopropylpyridin-2-amine] yielded an IC50 of 7.4 ± 0.41 nM. Work on `CC(C)Nc1cc(-c2c(-c3ccc(F)cc3)nnn2Cc2ccccc2)ccn1` [4b, 4-(1-benzyl-4-(4-fluorophenyl)-1H-1,2,3-triazol-5-yl)-N-iso-propyl-pyridin-2-amine] yielded an IC50 of 6.2 ± 2.2 nM.
